Experimental data from PMC2866756 (Antiviral research, 2010).
Read-outs that look alike come from different tables or passages of the source. Marks after values point to notes of the source that are not given here.

Assays:
[1] = tested on: VZV-BAC-Luc; assay type: in vivo, Varicella-zoster virus; conditions: for effect on VZV growth rate in vivo: SCID-Hu mice, dose groups combined, 3 experiments
[2] = tested on: VZV-BAC-Luc; assay: Skin organ culture; assay type: cell-based, Varicella-zoster virus; conditions: for antiviral effects in SOC compared with cultured HFFs: 2 dpi, same concentrations as in HFFs (EC99 doses); for effect on total flux in skin explants: SOC, EC99 doses: 400 μM acyclovir, 1 mM PAA, 1 mM L-mimosine, 50 μM DRB, 20 μM aphidicolin, 20 μM aloisine A, 20 μM purvalanol A, 25 μM roscovitine
[3] = tested on: VZV; assay: Attempt to isolate roscovitine-resistant VZV by continuous culture; assay type: cell-based, Varicella-zoster virus; conditions: 10 weeks of continuous culture at doses below the EC50, authors' observations
[4] = tested on: VZV; conditions: ref Taylor et al., 2004; cited from earlier work
[5] = Tolerability in SCID-Hu mice
[6] = tested on: skin tissue; conditions: skin organ culture; ref Taylor and Moffat, 2005; cited from earlier work
[7] = tested on: VZV; assay: Antiviral assay, VZV yield by infectious focus; assay type: cell-based, Varicella-zoster virus; conditions: for Selective Index: cytotoxic dose divided by the EC50 (plaque assay)
[8] = tested on: HFFs; conditions: for Cell Growth Arrest Dose: lowest dose for which absorbance at 48 h was the same as at 0 h
[9] = tested on: VZV; assay: Antiviral assay, VZV genome copy number by quantitative PCR; assay type: cell-based, Varicella-zoster virus; conditions: read-out: VZV EC50 (qPCR)
[10] = 0.7 mg/kg/day, s.c. osmotic pump, 7 days
[11] = 1.5 mg/kg/day, s.c. osmotic pump, 7 days
[12] = 2.8 mg/kg/day, s.c. osmotic pump, 7 days
[13] = 4.3 mg/kg/day, s.c. osmotic pump, 7 days
[14] = Human alphaherpesvirus 3, MeWo, 48 h, read-out: VZV EC50 (titer)
[15] = subconfluent HFFs, 48 h, fold change less than 1, * = solubility limit
[16] = read-out: VZV EC50 (titer), HFFs, 48 h, titered on MeWo cells
[17] = HFFs, 48 h, ORF38 copies normalized to β-globin

Question: With CC[C@H](CO)Nc1nc(NCc2ccccc2)c2ncn(C(C)C)c2n1 (racemic) [Roscovitine (racemic), Roscovitine] as the compound, how does the “Avg. VZV Growth Rate” value [1, 10] read?
Answer: Its value is 0.13 Log10 photons/sec/day.

Question: And the “Avg. VZV Growth Rate” value [1, 11]?
Answer: Its value is 0.12 Log10 photons/sec/day.

Question: And the “Avg. VZV Growth Rate” value [1, 12]?
Answer: The value was 0.24 Log10 photons/sec/day.

Question: And the “Avg. VZV Growth Rate” value [1, 13]?
Answer: The value was 0.26 Log10 photons/sec/day.

Question: What about the “effect on VZV growth rate in vivo” value [1] of the same compound?
Answer: Its value is “significantly reduced VZV growth rates”.

Question: And the “antiviral effects in SOC compared with cultured HFFs” value [2]?
Answer: The value was “similar”.

Question: And the “effect on total flux in skin explants” value [2]?
Answer: Its value is “reduced the total flux”.

Question: What about the “isolation of a resistant strain of VZV” value [3] of the same compound?
Answer: The value was “failed”.

Question: What about the “reversibility of antiviral effect” value [4] of the same compound?
Answer: The value was “reversible”.

Question: And the Mortality [5, 10]?
Answer: Its Mortality is 0/5.

Question: What about the ABWD [5, 11] of the same compound?
Answer: Its ABWD is −0.10 grams.

Question: And the Mortality [5, 11]?
Answer: The Mortality was 0/4.

Question: What about the ABWD [5, 12] of the same compound?
Answer: Its ABWD is −1.60 grams.

Question: And the Mortality [5, 12]?
Answer: The Mortality was 0/7.

Question: What about the ABWD [5, 13] of the same compound?
Answer: Its ABWD is 0.36 grams.

Question: What about the Mortality [5, 13] of the same compound?
Answer: Its Mortality is 0/5.

Question: What about the “cytotoxicity by histopathological analysis of skin tissue” value [6] of the same compound?
Answer: The value was “neither DMSO nor roscovitine was cytotoxic”.

Question: What about the EC50 [7, 14] of the same compound?
Answer: The EC50 was 4 µM.

Question: For Nc1nc2c(ncn2COCCO)c(=O)[nH]1 [Acyclovir], which “tolerance in Neutral Red assay” value [8] is on record?
Answer: Its value is “tolerated up through the limit of their solubility”.

Question: And the “Cytotoxic Dose” value ([8]; human, 48 h)?
Answer: Its value is 1.0 × 10^3* μM.

Question: And the EC50 ([9]; Human alphaherpesvirus 3, 48 h)?
Answer: Its EC50 is 5 µM.

Question: What about the EC50 [7, 14] of the same compound?
Answer: Its EC50 is 4 µM.

Question: With CCCCc1c(-c2ccc(O)cc2)[nH]c2nccnc12 [Aloisine A] as the compound, how does the “tolerance in Neutral Red assay” value ([8]; HFFs, culture medium at 37°C) read?
Answer: Its value is “tolerated up through the limit of their solubility”.

Question: And the “Cell Growth Arrest Dose” value ([8]; HFFs)?
Answer: Its value is 20 µM.

Question: What about the “antiviral effects in SOC compared with cultured HFFs” value [2] of the same compound?
Answer: Its value is “much lower”.

Question: And the “effect on total flux in skin explants” value [2]?
Answer: Its value is “increased”.

Question: And the EC50 ([9]; Human alphaherpesvirus 3, 48 h)?
Answer: The EC50 was 2 µM.

Question: What about the EC50 [7, 14] of the same compound?
Answer: Its EC50 is 2.5 µM.

Question: And the EC50 ([7]; Human alphaherpesvirus 3, read-out: EC50 values)?
Answer: The EC50 was 2 to 4 µM.

Question: For C[C@@]1(CO)[C@H](O)CC[C@@]2(C)[C@H]1CC[C@H]1C[C@@H]3C[C@@]12CC[C@]3(O)CO [Aphidicolin], which “tolerance in Neutral Red assay” value ([8]; HFFs, culture medium at 37°C) is on record?
Answer: The value was “tolerated up through the limit of their solubility”.

Question: What about the “antiviral effects in SOC compared with cultured HFFs” value [2] of the same compound?
Answer: Its value is “similar”.

Question: And the “effect on total flux in skin explants” value [2]?
Answer: Its value is “reduced the total flux”.

Question: And the “Selective Index” value [7]?
Answer: The value was 833.

Question: With C[S+](C)[O-] [DMSO, Dimethylsulfoxide] as the compound, how does the “effect on cell growth” value ([8]; HFFs, 400 mM) read?
Answer: Its value is “inhibited cell growth slightly”.

Question: What about the “concentration with no effect in Neutral Red assay” value ([8]; HFFs, 48 h) of the same compound?
Answer: The value was “up to 150 mM”.

Question: What about the “Cytotoxic Dose” value [8, 15] of the same compound?
Answer: Its value is over 400000 µM.

Question: And the EC50 [7, 16]?
Answer: Its EC50 is 75000 µM.

Question: Which “Cell Growth Arrest Dose” value ([8]; HFFs) does the source give for OC[C@H]1O[C@@H](n2cnc3cc(Cl)c(Cl)cc32)[C@H](O)[C@@H]1O [DRB, Dichloro-β-D-ribofurano-sylbenzimidazole] here?
Answer: Its value is 50 µM.

Question: And the “antiviral effects in SOC compared with cultured HFFs” value [2]?
Answer: Its value is “similar”.

Question: What about the “effect on total flux in skin explants” value [2] of the same compound?
Answer: Its value is “reduced the total flux”.

Question: And the EC50 [9, 17]?
Answer: The EC50 was 2 µM.

Question: What about the EC50 [7, 16] of the same compound?
Answer: Its EC50 is 5 µM.

Question: With N[C@@H](Cn1ccc(=O)c(O)c1)C(=O)O [L-mimosine] as the compound, how does the “Cell Growth Arrest Dose” value ([8]; HFFs) read?
Answer: Its value is 300 µM.

Question: And the “Cytotoxic Dose” value ([8]; human, 48 h)?
Answer: Its value is 3000 µM.

Question: And the “antiviral effects in SOC compared with cultured HFFs” value [2]?
Answer: Its value is “similar”.

Question: What about the “effect on total flux in skin explants” value [2] of the same compound?
Answer: The value was “reduced the total flux”.

Question: And the EC50 ([9]; Human alphaherpesvirus 3, 48 h)?
Answer: The EC50 was 50 µM.

Question: And the EC50 [7, 14]?
Answer: The EC50 was 70 µM.

Question: What about the “Selective Index” value [7] of the same compound?
Answer: Its value is 43.

Question: What does the source list for O=C(O)CP(=O)(O)O [Phosphonoacetic acid (PAA), Phosphonoacetic acid]?
Answer: Cytotoxic Dose ([8]; human, 48 h): 15000 µM; EC50 ([9]; Human alphaherpesvirus 3, 48 h): 500 µM; EC50 [7, 14]: 300 µM

Question: For CC(C)[C@H](CO)Nc1nc(Nc2cccc(Cl)c2)c2ncn(C(C)C)c2n1 [Purvalanol A], which “Avg. VZV Growth Rate” value ([1]; 10 mg/kg/day, daily i.p. injection) is on record?
Answer: Its value is 0.37 Log10 photons/sec/day.

Question: What about the “effect on VZV growth rate in vivo” value [1] of the same compound?
Answer: Its value is “not effective at reducing the rate of VZV growth”.

Question: What about the “effect on VZV growth rate in vivo” value ([1]; listed as purvalanol A) of the same compound?
Answer: Its value is “No difference”.

Question: And the “Cell Growth Arrest Dose” value ([8]; HFFs)?
Answer: The value was 10 µM.

Question: What about the “Cytotoxic Dose” value [8, 15] of the same compound?
Answer: The value was 20 µM.

Question: What about the “antiviral effects in SOC compared with cultured HFFs” value [2] of the same compound?
Answer: Its value is “much lower”.

Question: And the “effect on total flux in skin explants” value [2]?
Answer: Its value is “increased”.

Question: And the ABWD ([5]; 20 mg/kg/day, daily i.p. injection)?
Answer: The ABWD was −2.96 grams.

Question: What about the tolerability in mice ([5]; i.p. injection, 20 or 10 mg/kg/day) of the same compound?
Answer: Its tolerability in mice is “not as well tolerated as roscovitine”.

Question: And the “Selective Index” value [7]?
Answer: The value was 570.

Question: Which results are given for CC[C@H](CO)Nc1nc(NCc2ccccc2)c2ncn(C(C)C)c2n1 [R-Roscovitine]?
Answer: EC50 ([9]; Human alphaherpesvirus 3, 48 h): 3 µM; EC50 [7, 14]: 3.5 µM

Question: For CC[C@@H](CO)Nc1nc(NCc2ccccc2)c2ncn(C(C)C)c2n1 [S-Roscovitine], which EC50 [9, 17] is on record?
Answer: Its EC50 is 1 µM.

Question: And the EC50 [7, 16]?
Answer: Its EC50 is 2.5 µM.

Question: With CN[C@@H]1C[C@H]2O[C@@](C)([C@@H]1OC)n1c3ccccc3c3c4c(c5c6ccccc6n2c5c31)C(=O)NC4 [staurosporine] as the compound, how does the “live cells after treatment” value ([8]; HFFs, 35 nM, positive control for cell death) read?
Answer: The value was “No live cells were detected”.
